{"source": "patent US4552843A", "about": "“Process for producing an acidic polycyclic ether antibiotic by cultivation of a novel strain of Streptomyces endus subspecies aureus” (Pfizer Inc., priority 1984, dated 1985)", "key": {"Eimeria acervulina": {"system": "Eimeria acervulina", "experiment": "efficacy against coccidial infections in chickens (Table II)", "assay_type": "in vivo", "settings": "for Ratio: lesion score treated / infected control; for % Weight Gain / Average Degree of Infection: chicks; for Average Degree of Infection: lesion score 0 to 3, five days", "experimental": "(§1) Efficacy data for Antibiotic CP-63,517 and its salts against coccidial infections in chickens was obtained in the following fashion. Groups of 3-5 ten-day old SPF white leghorn cockerel chicks were fed a mash diet containing Antibiotic CP-63,517, its sodium and/or potassium salt, or the known agents Monensin or Stenorol uniformly dispersed therein. After being on this ration for 24 hours each chick was inoculated per os with oocysts of the particular species of Eimeria being tested. Other groups of 3-5 ten-day old chicks were fed a similar mash diet free of any test compound. They were also infected after 24 hours and served as infected controls. Yet another group of 3-5 ten-day old chicks were fed the mash diet free of any test compound and were not infected with coccidia. These served as normal controls. The results of treatment were evaluated after five days in the case of E. acervulina, and six days for other challenges.\n(§2) ^1 The criteria used to measure anticoccidial activity consisted of\n(§3) lesion scores of 0 to 4 for Eimeria tenella after J. E. Lynch, \"A New\n(§4) Method for the Primary Evaluation of Anticoccidial Activity\", Am. J. Vet.\n(§5) modification of the scoring system devised by J. Johnson and W. H. Reid,\n(§6) \"Anticoccidial Drugs. Lesion Scoring Techniques in Battery and Floor Pen\n(§7) Experiments in Chicks\", Exp. Parasit. 28: 30-36 (1970). A constant ratio\n(§8) was established by dividing the lesion score of each treated group by the\n(§9) lesion score of the infected control."}, "Eimeria tenella": {"system": "Eimeria tenella", "experiment": "efficacy against coccidial infections in chickens (Table II)", "assay_type": "in vivo", "settings": "for Ratio: lesion score treated / infected control; for % Weight Gain / Average Degree of Infection: chicks; for Average Degree of Infection: lesion score 0 to 4, six days", "experimental": "as §1, §2, §3, §4, §5, §6, §7, §8, §9"}, "[1]": {"settings": "10 ppm in diet, replicate (in parentheses)"}, "[2]": {"settings": "20 ppm in diet, replicate (in parentheses)"}, "[3]": {"settings": "30 ppm in diet, replicate (in parentheses)"}, "[4]": {"settings": "40 ppm in diet, replicate (in parentheses)"}, "[5]": {"settings": "diet of chickens at levels of 5 to 40 ppm"}}, "data": [{"smiles": "COC1CCC(OC2CC3(CC(O)C(C)C(C(C)C=C(C)C(=O)C(C)CC(C)C(=O)O)O3)OC2(C)C2CCC(C)C3(OC(C4OC(O)(CO)C(C)CC4C)CC3C)O2)OC1C", "note": "(centres unmarked) [CP-63,517]", "values": [{"measurement": "Ratio", "setting": "Eimeria acervulina; 5 ppm in diet", "result": 1.10}, {"measurement": "Ratio", "setting": "Eimeria acervulina; 10 ppm in diet", "result": 0.50}, {"measurement": "Ratio", "setting": "Eimeria acervulina; [1]", "result": 0.30}, {"measurement": "Ratio", "setting": "Eimeria acervulina; 20 ppm in diet", "result": 0.40}, {"measurement": "Ratio", "setting": "Eimeria acervulina; [2]", "result": 0.20}, {"measurement": "Ratio", "setting": "Eimeria acervulina; 30 ppm in diet", "result": 0.20}, {"measurement": "Ratio", "setting": "Eimeria acervulina; [3]", "result": 0.30}, {"measurement": "Ratio", "setting": "Eimeria acervulina; 40 ppm in diet", "result": 0.60}, {"measurement": "Ratio", "setting": "Eimeria acervulina; [4]", "result": 0.60}, {"measurement": "% Weight Gain", "setting": "Eimeria acervulina; 5 ppm in diet", "result": 11, "unit": "%"}, {"measurement": "Average Degree of Infection", "setting": "Eimeria acervulina; 5 ppm in diet", "result": 2.2}, {"measurement": "% Weight Gain", "setting": "Eimeria acervulina; 10 ppm in diet", "result": 40, "unit": "%"}, {"measurement": "Average Degree of Infection", "setting": "Eimeria acervulina; 10 ppm in diet", "result": 1.0}, {"measurement": "Average Degree of Infection", "setting": "Eimeria acervulina; [1]", "result": 0.6}, {"measurement": "% Weight Gain", "setting": "Eimeria acervulina; [1]", "result": 0, "unit": "%"}, {"measurement": "% Weight Gain", "setting": "Eimeria acervulina; 20 ppm in diet", "result": 30, "unit": "%"}, {"measurement": "Average Degree of Infection", "setting": "Eimeria acervulina; 20 ppm in diet", "result": 0.8}, {"measurement": "Average Degree of Infection", "setting": "Eimeria acervulina; [2]", "result": 0.4}, {"measurement": "% Weight Gain", "setting": "Eimeria acervulina; [2]", "result": 60, "unit": "%"}, {"measurement": "% Weight Gain", "setting": "Eimeria acervulina; 30 ppm in diet", "result": 0, "unit": "%"}, {"measurement": "Average Degree of Infection", "setting": "Eimeria acervulina; 30 ppm in diet", "result": 0.4}, {"measurement": "Average Degree of Infection", "setting": "Eimeria acervulina; [3]", "result": 0.6}, {"measurement": "% Weight Gain", "setting": "Eimeria acervulina; [3]", "result": 0, "unit": "%"}, {"measurement": "% Weight Gain", "setting": "Eimeria acervulina; 40 ppm in diet", "result": 0, "unit": "%"}, {"measurement": "Average Degree of Infection", "setting": "Eimeria acervulina; 40 ppm in diet", "result": 1.2}, {"measurement": "Average Degree of Infection", "setting": "Eimeria acervulina; [4]", "result": 1.2}, {"measurement": "% Weight Gain", "setting": "Eimeria acervulina; [4]", "result": 0, "unit": "%"}, {"measurement": "control of infections due to E. acervulina", "setting": "Eimeria acervulina; [5]", "result": "effective in controlling infections"}, {"measurement": "Ratio", "setting": "Eimeria tenella; 5 ppm in diet", "result": 0.3}, {"measurement": "Ratio", "setting": "Eimeria tenella; 10 ppm in diet", "result": 0.0}, {"measurement": "Ratio", "setting": "Eimeria tenella; [1]", "result": 0.3}, {"measurement": "Ratio", "setting": "Eimeria tenella; 20 ppm in diet", "result": 0.0}, {"measurement": "Ratio", "setting": "Eimeria tenella; [2]", "result": 0.0}, {"measurement": "Ratio", "setting": "Eimeria tenella; 30 ppm in diet", "result": 0.0}, {"measurement": "Ratio", "setting": "Eimeria tenella; [3]", "result": 0.0}, {"measurement": "Ratio", "setting": "Eimeria tenella; 40 ppm in diet", "result": 0.0}, {"measurement": "Ratio", "setting": "Eimeria tenella; [4]", "result": 0.0}, {"measurement": "% Weight Gain", "setting": "Eimeria tenella; 5 ppm in diet", "result": 63, "unit": "%"}, {"measurement": "Average Degree of Infection", "setting": "Eimeria tenella; 5 ppm in diet", "result": 1.0}, {"measurement": "% Weight Gain", "setting": "Eimeria tenella; 10 ppm in diet", "result": 36, "unit": "%"}, {"measurement": "Average Degree of Infection", "setting": "Eimeria tenella; 10 ppm in diet", "result": 0.0}, {"measurement": "Average Degree of Infection", "setting": "Eimeria tenella; [1]", "result": 1.0}, {"measurement": "% Weight Gain", "setting": "Eimeria tenella; [1]", "result": 66, "unit": "%"}, {"measurement": "% Weight Gain", "setting": "Eimeria tenella; 20 ppm in diet", "result": 14, "unit": "%"}, {"measurement": "Average Degree of Infection", "setting": "Eimeria tenella; 20 ppm in diet", "result": 0.0}, {"measurement": "Average Degree of Infection", "setting": "Eimeria tenella; [2]", "result": 0.0}, {"measurement": "% Weight Gain", "setting": "Eimeria tenella; [2]", "result": 26, "unit": "%"}, {"measurement": "% Weight Gain", "setting": "Eimeria tenella; 30 ppm in diet", "result": 0, "unit": "%"}, {"measurement": "Average Degree of Infection", "setting": "Eimeria tenella; 30 ppm in diet", "result": 0.0}, {"measurement": "Average Degree of Infection", "setting": "Eimeria tenella; [3]", "result": 0.0}, {"measurement": "% Weight Gain", "setting": "Eimeria tenella; [3]", "result": 23, "unit": "%"}, {"measurement": "% Weight Gain", "setting": "Eimeria tenella; 40 ppm in diet", "result": 0, "unit": "%"}, {"measurement": "Average Degree of Infection", "setting": "Eimeria tenella; 40 ppm in diet", "result": 0.0}, {"measurement": "Average Degree of Infection", "setting": "Eimeria tenella; [4]", "result": 0.0}, {"measurement": "% Weight Gain", "setting": "Eimeria tenella; [4]", "result": 2, "unit": "%"}, {"measurement": "control of infections due to Eimeria tenella", "setting": "Eimeria tenella; [5]", "result": "effective in controlling infections"}]}]}
